# In ChEMBL document CHEMBL3885861, “Open TG-GATES”:
# Organism: Rattus norvegicus
# Experiment: Open TG-GATES - Regimen: Daily Repeat
# Format: toxicity, organism-based, Sprague-Dawley
# Set-up: regimen Daily Repeat, gender Male, age 6 weeks
# Conditions: in vivo, po, route gavage; for APTT / Bas / Eos / Fbg / Hb / Ht / Lym / MCH / MCHC / MCV / Mono / Neu / PT / Plat / RBC / Ret / WBC: tissue Blood; for A/G / ALP / ALT / AST / BUN / CRE / Ca / Cl / DBIL / GLC / IP / K / LDH / Na / PL / RALB / TBIL / TC / TG / TP / gamma-GTP: tissue Plasma
# [1] = 0 mg/kg, 72 h, dose level Control, time 3 day
# [2] = 0 mg/kg, […], dose level Control, time 7 day
# [3] = 0 mg/kg, […], dose level Control, time 14 day
# [4] = 0 mg/kg, […], dose level Control, time 28 day
# [5] = 10 mg/kg, 72 h, dose level Low, time 3 day
# [6] = 10 mg/kg, […], dose level Low, time 7 day
# [7] = 10 mg/kg, […], dose level Low, time 14 day
# [8] = 10 mg/kg, […], dose level Low, time 28 day
structure (smiles),measurement,setting,value
Cn1cc[nH]c1=S [METHIMAZOLE],TERMINAL_BW,[1],217.3 g
same,APTT,[1],21.2 s
same,Bas,[1],0%
same,Eos,[1],1%
same,Fbg,[1],310.8 mg/dL
same,Hb,[1],13.8 g/dL
same,Ht,[1],38.2%
same,Lym,[1],84.8%
same,MCH,[1],22.7 pg
same,MCHC,[1],36.1%
same,MCV,[1],62.8 fL
same,Mono,[1],1.6%
same,Neu,[1],11.8%
same,PT,[1],16.2 s
same,Plat,[1],126.3 x10_4/uL
same,RBC,[1],609 x10_4/ul
same,Ret,[1],6.7%
same,WBC,[1],107.5 x10_2/uL
same,A/G,[1],1.3
same,ALP,[1],1736 IU/L
same,ALT,[1],41.4 IU/L
same,AST,[1],68 IU/L
same,BUN,[1],17 mg/dL
same,CRE,[1],0.1 mg/dL
same,Ca,[1],10.8 mg/dL
same,Cl,[1],105.8 meq/L
same,DBIL,[1],0.002 mg/dL
same,GLC,[1],190.8 mg/dL
same,IP,[1],6.8 mg/dL
same,K,[1],4.1 meq/L
same,LDH,[1],187.8 IU/L
same,Na,[1],141.8 meq/L
same,PL,[1],161 mg/dL
same,RALB,[1],3.2 g/dL
same,TBIL,[1],0.014 mg/dL
same,TC,[1],89.4 mg/dL
same,TG,[1],93.8 mg/dL
same,TP,[1],5.7 g/dL
same,gamma-GTP,[1],1.2 IU/L
same,TERMINAL_BW,[2],252.2 g
same,TERMINAL_BW,[3],307.5 g
same,TERMINAL_BW,[4],373.3 g
same,APTT,[2],20.9 s
same,Bas,[2],0%
same,Eos,[2],0.8%
same,Fbg,[2],321.4 mg/dL
same,Hb,[2],14.2 g/dL
same,Ht,[2],38.9%
same,Lym,[2],80.2%
same,MCH,[2],22.3 pg
same,MCHC,[2],36.5%
same,MCV,[2],60.9 fL
same,Mono,[2],2.6%
same,Neu,[2],15.6%
same,PT,[2],15.9 s
same,Plat,[2],115.9 x10_4/uL
same,RBC,[2],638 x10_4/ul
same,Ret,[2],5.8%
same,WBC,[2],112.3 x10_2/uL
same,APTT,[3],22.2 s
same,Bas,[3],0%
same,Eos,[3],0.6%
same,Fbg,[3],331.8 mg/dL
same,Hb,[3],13.7 g/dL
same,Ht,[3],39.4%
same,Lym,[3],80.6%
same,MCH,[3],20.5 pg
same,MCHC,[3],34.9%
same,MCV,[3],58.7 fL
same,Mono,[3],1.8%
same,Neu,[3],15.8%
same,PT,[3],16.3 s
same,Plat,[3],117.4 x10_4/uL
same,RBC,[3],672.6 x10_4/ul
same,Ret,[3],4.9%
same,WBC,[3],112.2 x10_2/uL
same,APTT,[4],22.6 s
same,Bas,[4],0%
same,Eos,[4],1%
same,Fbg,[4],316.6 mg/dL
same,Hb,[4],15.2 g/dL
same,Ht,[4],42.9%
same,Lym,[4],82.4%
same,MCH,[4],19.3 pg
same,MCHC,[4],35.3%
same,MCV,[4],54.7 fL
same,Mono,[4],2.2%
same,Neu,[4],13.2%
same,PT,[4],16.4 s
same,Plat,[4],97.4 x10_4/uL
same,RBC,[4],785.4 x10_4/ul
same,Ret,[4],2.6%
same,WBC,[4],113.4 x10_2/uL
same,A/G,[2],1.2
same,ALP,[2],1790.2 IU/L
same,ALT,[2],39 IU/L
same,AST,[2],75.8 IU/L
same,BUN,[2],17.2 mg/dL
same,CRE,[2],0.2 mg/dL
same,Ca,[2],10.6 mg/dL
same,Cl,[2],107 meq/L
same,DBIL,[2],0 mg/dL
same,GLC,[2],195.4 mg/dL
same,IP,[2],7.5 mg/dL
same,K,[2],4.1 meq/L
same,LDH,[2],290.8 IU/L
same,Na,[2],142.2 meq/L
same,PL,[2],163.4 mg/dL
same,RALB,[2],3 g/dL
same,TBIL,[2],0.002 mg/dL
same,TC,[2],84.8 mg/dL
same,TG,[2],126 mg/dL
same,TP,[2],5.5 g/dL
same,gamma-GTP,[2],1 IU/L
same,A/G,[3],1.1
same,ALP,[3],1783.8 IU/L
same,ALT,[3],42.8 IU/L
same,AST,[3],71 IU/L
same,BUN,[3],18.2 mg/dL
same,CRE,[3],0.2 mg/dL
same,Ca,[3],10.6 mg/dL
same,Cl,[3],106 meq/L
same,DBIL,[3],0 mg/dL
same,GLC,[3],182 mg/dL
same,IP,[3],7 mg/dL
same,K,[3],4.3 meq/L
same,LDH,[3],198.6 IU/L
same,Na,[3],142.2 meq/L
same,PL,[3],158.6 mg/dL
same,RALB,[3],3 g/dL
same,TBIL,[3],0.014 mg/dL
same,TC,[3],75.4 mg/dL
same,TG,[3],150.2 mg/dL
same,TP,[3],5.8 g/dL
same,gamma-GTP,[3],1.6 IU/L
same,A/G,[4],1.1
same,ALP,[4],1110.8 IU/L
same,ALT,[4],40.4 IU/L
same,AST,[4],65.8 IU/L
same,BUN,[4],18.4 mg/dL
same,CRE,[4],0.2 mg/dL
same,Ca,[4],10.5 mg/dL
same,Cl,[4],105.4 meq/L
same,DBIL,[4],0.002 mg/dL
same,GLC,[4],198.8 mg/dL
same,IP,[4],6.3 mg/dL
same,K,[4],4.4 meq/L
same,LDH,[4],191.8 IU/L
same,Na,[4],142.4 meq/L
same,PL,[4],149.2 mg/dL
same,RALB,[4],3.2 g/dL
same,TBIL,[4],0.002 mg/dL
same,TC,[4],65.8 mg/dL
same,TG,[4],168 mg/dL
same,TP,[4],6 g/dL
same,gamma-GTP,[4],1 IU/L
same,TERMINAL_BW,[5],223.1 g
same,APTT,[5],19.4 s
same,Bas,[5],0%
same,Eos,[5],1.2%
same,Fbg,[5],325.2 mg/dL
same,Hb,[5],13.7 g/dL
same,Ht,[5],38.6%
same,Lym,[5],81.8%
same,MCH,[5],21.9 pg
same,MCHC,[5],35.6%
same,MCV,[5],61.5 fL
same,Mono,[5],2.6%
same,Neu,[5],13.6%
same,PT,[5],16.4 s
same,Plat,[5],128.5 x10_4/uL
same,RBC,[5],628.2 x10_4/ul
same,Ret,[5],6.5%
same,WBC,[5],95 x10_2/uL
same,A/G,[5],1.1
same,ALP,[5],1789.2 IU/L
same,ALT,[5],40.8 IU/L
same,AST,[5],65.6 IU/L
same,BUN,[5],16.8 mg/dL
same,CRE,[5],0.1 mg/dL
same,Ca,[5],11.1 mg/dL
same,Cl,[5],106.8 meq/L
same,DBIL,[5],0 mg/dL
same,GLC,[5],184 mg/dL
same,IP,[5],6.3 mg/dL
same,K,[5],4.2 meq/L
same,LDH,[5],170 IU/L
same,Na,[5],141.8 meq/L
same,PL,[5],183 mg/dL
same,RALB,[5],3.1 g/dL
same,TBIL,[5],0.004 mg/dL
same,TC,[5],101.6 mg/dL
same,TG,[5],128.6 mg/dL
same,TP,[5],5.8 g/dL
same,gamma-GTP,[5],1.2 IU/L
same,TERMINAL_BW,[6],253.1 g
same,TERMINAL_BW,[7],300.3 g
same,TERMINAL_BW,[8],356.4 g
same,APTT,[6],20.3 s
same,Bas,[6],0%
same,Eos,[6],1%
same,Fbg,[6],333 mg/dL
same,Hb,[6],13.9 g/dL
same,Ht,[6],38.1%
same,Lym,[6],80%
same,MCH,[6],22.3 pg
same,MCHC,[6],36.4%
same,MCV,[6],61.3 fL
same,Mono,[6],2.6%
same,Neu,[6],15.6%
same,PT,[6],16.4 s
same,Plat,[6],121.5 x10_4/uL
same,RBC,[6],622.8 x10_4/ul
same,Ret,[6],5.6%
same,WBC,[6],102.3 x10_2/uL
same,APTT,[7],22.1 s
same,Bas,[7],0%
same,Eos,[7],0.8%
same,Fbg,[7],318.8 mg/dL
same,Hb,[7],14 g/dL
same,Ht,[7],40.7%
same,Lym,[7],85.2%
same,MCH,[7],20.1 pg
same,MCHC,[7],34.5%
same,MCV,[7],58.4 fL
same,Mono,[7],2%
same,Neu,[7],11.6%
same,PT,[7],16.5 s
same,Plat,[7],110.2 x10_4/uL
same,RBC,[7],697 x10_4/ul
same,Ret,[7],4.3%
same,WBC,[7],101.8 x10_2/uL
same,APTT,[8],23.7 s
same,Bas,[8],0%
same,Eos,[8],1%
same,Fbg,[8],306 mg/dL
same,Hb,[8],15 g/dL
same,Ht,[8],42.4%
same,Lym,[8],84.4%
same,MCH,[8],19.4 pg
same,MCHC,[8],35.4%
same,MCV,[8],54.8 fL
same,Mono,[8],2.4%
same,Neu,[8],11%
same,PT,[8],16.7 s
same,Plat,[8],87.5 x10_4/uL
same,RBC,[8],773 x10_4/ul
same,Ret,[8],2%
same,WBC,[8],108.5 x10_2/uL
same,A/G,[6],1.1
same,ALP,[6],1430.4 IU/L
same,ALT,[6],38 IU/L
same,AST,[6],65.8 IU/L
same,BUN,[6],17.4 mg/dL
same,CRE,[6],0.2 mg/dL
same,Ca,[6],10.8 mg/dL
same,Cl,[6],107.4 meq/L
same,DBIL,[6],0 mg/dL
same,GLC,[6],177.8 mg/dL
same,IP,[6],7.1 mg/dL
same,K,[6],4.1 meq/L
same,LDH,[6],232.4 IU/L
same,Na,[6],142 meq/L
same,PL,[6],171.8 mg/dL
same,RALB,[6],3 g/dL
same,TBIL,[6],0 mg/dL
same,TC,[6],90.8 mg/dL
same,TG,[6],149 mg/dL
same,TP,[6],5.9 g/dL
same,gamma-GTP,[6],1 IU/L
same,A/G,[7],1.1
same,ALP,[7],1277.4 IU/L
same,ALT,[7],40.6 IU/L
same,AST,[7],62.6 IU/L
same,BUN,[7],17.6 mg/dL
same,CRE,[7],0.2 mg/dL
same,Ca,[7],10.6 mg/dL
same,Cl,[7],106.6 meq/L
same,DBIL,[7],0 mg/dL
same,GLC,[7],176.8 mg/dL
same,IP,[7],6.1 mg/dL
same,K,[7],4.1 meq/L
same,LDH,[7],197.6 IU/L
same,Na,[7],142.2 meq/L
same,PL,[7],170.2 mg/dL
same,RALB,[7],3.2 g/dL
same,TBIL,[7],0.01 mg/dL
same,TC,[7],96 mg/dL
same,TG,[7],134 mg/dL
same,TP,[7],6.1 g/dL
same,gamma-GTP,[7],2 IU/L
same,A/G,[8],1.1
same,ALP,[8],1026.6 IU/L
same,ALT,[8],29.8 IU/L
same,AST,[8],51 IU/L
same,BUN,[8],19.2 mg/dL
same,CRE,[8],0.2 mg/dL
same,Ca,[8],10.7 mg/dL
same,Cl,[8],106.4 meq/L
same,DBIL,[8],0.002 mg/dL
same,GLC,[8],184.8 mg/dL
same,IP,[8],5.9 mg/dL
same,K,[8],4.1 meq/L
same,LDH,[8],143.8 IU/L
same,Na,[8],142.6 meq/L
same,PL,[8],160 mg/dL
same,RALB,[8],3.5 g/dL
same,TBIL,[8],0.004 mg/dL
same,TC,[8],81.2 mg/dL
same,TG,[8],165.4 mg/dL
same,TP,[8],6.6 g/dL
same,gamma-GTP,[8],1.8 IU/L
